In patent publication US8748456B2, “Pyrazolo piperidine derivatives as NADPH oxidase inhibitors” (Genkyotex SA, priority 2010, dated 2014):

How the values were obtained:
Format in all cases: cell-based, human
NOX [1] = tested on: T1, NOX; experiment: Amplex Red measurement of NOX activity (extracellular hydrogen peroxide) in DMSO-differentiated HL60 cells; settings: DPI 10 μM, NOX activity as % of the activity in control cells, 'usually'
T1 construct: rows headed: Residual activity of DPI-treated cells; other: Amplex Red; DPI 10 μM; NOX activity as % of the activity in control cell
Experimental: Human acute myeloid leukemia cell line HL-60 was cultured in RPMI 1640 (Invitrogen) supplemented with 10% heat-inactivated calf serum, 2 mM glutamine, 100 U/mL penicillin (Sigma), and 100 μg streptomycin (Sigma) at 37° C. under a humidified atmosphere of 5% CO2. HL60 differentiation to the neutrophil phenotype was triggered by adding Me2SO (final concentration 1.25% v/v for 6 days) to the culture medium.
Extracellular hydrogen peroxide was measured using Amplex UltraRed (Molecular Probes). Cells were trypsinized (1× Trypsin-EDTA), collected by centrifugation, and resuspended in HBSS supplemented with 1% glucose. Cells were seeded into black 96-well plates at a density of 50′000 cells in 200 μl testing buffer (HBSS 1% glucose containing 0.005 U/mL horseradish peroxidase (Roche) and 50 μM Amplex Red in the presence or absence of compounds according to the invention. As a control, DPI was included at a final concentration of 10 μM The plates were placed in the fluorescent Optima Fluorescent plate reader and kept at 37° C. during 20 min. Fluorescence was measured for […] with excitation and emission wavelengths of 544 nm and 590 nm respectively. NOX activities were expressed as % of the activity in control cells. […]
The Table 2 below summarizes the percentage of inhibition of NOX activity as measured by Amplex Red using DMSO-differentiated HL60 cells as described above: […]

NOX [2] = experiment: Nitroblue tetrazolium (NBT) test of intracellular and extracellular superoxide in cells; settings: DPI 10 μM, NOX activity as % of the activity in control cells, 'usually'
Experimental: Intracellular and extracellular superoxide was measured by a colorimetric technique using a quantitative nitroblue tetrazolium (NBT) test. SOD-inhibitable conversion of NBT to formazan, a fine blue precipitate, in the presence of superoxide anion was measured using Fluostar Optima spectrometer (BMG labtech). Following incubation with appropriate stimuli, cells were trypsinized (1× Trypsin-EDTA), collected by centrifugation, and washed with PBS to remove medium. 5×10^5 cells were plated on 48-well plates and incubated in Hank's balanced salt solution containing 0.5 mg/mL NBT with or without 800 U/mL SOD in the presence or absence of compounds according to the invention. As a control, DPI was included at a final concentration of 10 μM. After 2.5 h, cells were fixed and washed with methanol to remove non reduced NBT. The reduced formazan was then dissolved in 230 μl of 2M potassium hydroxide and in 280 μl of dimethylsulfoxide. The absorption was measured at 630 nm. For calculation, the absorbance at 630 nm was normalized for each individual well. The mean of the four blank values was subtracted from each corrected value for each time point. NOX activities were expressed as % of the activity in control cells. Residual activity of DPI-treated cells was usually <10%.

NOX [3] = experiment: Chemiluminescence (luminol) measurement of ROS in cells; settings: NOX activity as % of the activity in control cells, 'usually'
Experimental: ROS was measured using the chemiluminescent probe luminol. Cells were cultured and plated as for Amplex Red except that the Amplex Red agent was replaced by 10 μg/mL luminol (Sigma 09235). Light emission was recorded continuously at 37° C. for 60 minutes using the luminescence function of the FluoStar Optima fluorescent plate reader. The mean of the four blank values was subtracted from each corrected value for each time point. NOX activities were expressed as % of the activity in control cells. Residual activity of DPI-treated cells was usually <10%.

NOX [4] = tested on: T2, NOX; experiment: H2DCF-DA (DCF fluorescence) in HUVEC stimulated with TGF-β; settings: NOX activity as % of the activity in control cells, 'usually'
T2 construct: rows headed: Residual activity of DPI-treated cells; other: H2DCF-DA, HUVEC + TGF-β; NOX activity as % of the activity in control ce
Experimental: HUVEC are cultured in endothelial basal medium supplemented with hydrocortisone (1 μg/mL, CalbioChem), bovine brain extract (12 μg/mL), gentamicin (50 μg/mL, CalbioChem), amphotericin B (50 ng/mL, CalBioChem EGF (10 ng/mL, and 10% FCS until the fourth passage. When the fifth passage was started, cells were cultured with a lower concentration of FCS (2%) in the absence of EGF, if not indicated otherwise. All experiments were done with cells of the fifth passage. The cells were incubated with OxLDL (oxidized low-density lipoprotein) or its buffer as control for 24 h, before detection of O2^− formation.
HUVEC were plated on coverslips and made quiescent overnight in 0.5% BSA before stimulation with TGF-β. Cells were loaded for 10 minutes with 5 μM CM-H2DCFDA in phenol-red-free medium in the dark and then treated with TGF-β (R&D Systems) in the presence or absence of compounds according to the invention. Cells were then visualized by immunofluorescence microscopy after fixation and staining of the nuclei with DAPI or examined live using confocal microscopy. DCF fluorescence was visualized at an excitation wavelength of 488 nm and emission at 515 to 540 nm. […] For calculation, the absorbance at […] was normalized to absorbance at […] for each individual well. […] NOX activities were expressed as % of the activity in control cells. […]

Measured: Residual activity of DPI-treated cells

c1ccc([I+]c2ccccc2)cc1 [DPI, Diphenyl-iodonium]
< 10%: all assays above
